Source: ChEMBL document CHEMBL1144949, “4-Phenyl-4H-pyrans as IK(Ca) channel blockers” (Bioorg Med Chem Lett, 2003)

What follows are molecules tested on C6-BU-1 (assay: IKCa channel inhibition was determined at 72% residual Rb+ efflux of pre loaded rat C6BU1 glioma cell in comparison with Nifedipine).
Assay type: functional, cell-based; call rule not given here

| Compound | IC50 [µM] |
| --- | --- |
| CCCOC(=O)C1=C(C)OC(C)=C(C(=O)OCCC)C1c1ccc(Cl)cc1 | 1 |

What follows are molecules tested on C6-BU-1 (assay: IKCa channel inhibition was determined measuring ionomycin-induced Rb+ efflux of pre loaded rat C6BU1 glioma cell in comparison with Nifedipine).
Assay type: functional, cell-based

| Compound | IC50 [µM] |
| --- | --- |
| CCOC(=O)C1=C(C)OC(C)=C(C(=O)OCC)C1c1ccc(Cl)cc1 | 0.15 |
| CC(=O)C1=C(C)OC(C)=C(C(C)=O)C1c1ccc(Cl)cc1 | 0.22 |
| COC(=O)C1=C(C)OC(C)=C(C(C)=O)C1c1ccc(Cl)cc1 (racemic) | 0.075 |
| COC(=O)C1=C(C)OC(C)=C(C(=O)OC)C1c1ccccc1 | 0.16 |
| COC(=O)C1=C(C)NC(C)=C(C(=O)OC)C1c1ccccc1[N+](=O)[O-] [NIFEDIPINE] | 1 |
| COC(=O)C1=C(C)OC(C)=C(C(=O)OC)C1c1ccccc1Cl | 0.1 |

Now from value to molecule:

| IC50 [µM] | Compound |
| --- | --- |
| 0.024 | COC(=O)C1=C(C)OC(C)=C(C(=O)OC)C1c1ccc(Cl)cc1 |
| 0.026 | COC(=O)C1=C(C)OC(C)=C(C(=O)OC)C1c1cccc(Cl)c1 |
| 0.035 | CCOC(=O)C1=C(C)OC(C)=C(C(=O)OC)C1c1ccc(Cl)cc1 (racemic) |
| 0.008 | COC(=O)C1=C(C)OC(C)=C(C(C)=O)C1c1ccc(Cl)c(C(F)(F)F)c1 (racemic) |
| 0.024 | COC(=O)C1=C(C)OC(C)=C(C(=O)OC)C1c1ccc(Cl)c(C(F)(F)F)c1 |

Each molecule was assayed on C6-BU-1 (assay: IKCa channel inhibition was determined measuring ionomycin-induced Rb+ efflux of pre loaded rat C6BU1 glioma cell in comparison with Nifedipine; NA=Inactive at 1000 nM).
Assay type: functional, cell-based

| Compound | IC50 |
| --- | --- |
| CCCCOC(=O)C1=C(C)OC(C)=C(C(=O)OCCCC)C1c1ccc(Cl)cc1 | Not Active |
